Molecules are shown by their SMILES. Active and inactive are the calls of the source. The rule behind the calls is not given here.

This note sets out measurements from ChEMBL document CHEMBL4219112, “Rational drug design and synthesis of new α-Santonin derivatives as potential COX-2 inhibitors” (Bioorg Med Chem Lett, 2018).

In data set [1] the test system is RIF-1. Nature of the data set: Inhibition of COX2 expression levels in PH-PDT-treated mouse RIF1 cells at 400 uM after 24 hrs by Western blot analysis. It is filed as functional, cell-based. For orientation: A western blot detects proteins with antibodies after separation by electrophoresis.
Data set [2] has as its target T1, Prostaglandin G/H synthase 2 (Mus musculus) (UniProt Q05769).
T1 sequence (whole entry): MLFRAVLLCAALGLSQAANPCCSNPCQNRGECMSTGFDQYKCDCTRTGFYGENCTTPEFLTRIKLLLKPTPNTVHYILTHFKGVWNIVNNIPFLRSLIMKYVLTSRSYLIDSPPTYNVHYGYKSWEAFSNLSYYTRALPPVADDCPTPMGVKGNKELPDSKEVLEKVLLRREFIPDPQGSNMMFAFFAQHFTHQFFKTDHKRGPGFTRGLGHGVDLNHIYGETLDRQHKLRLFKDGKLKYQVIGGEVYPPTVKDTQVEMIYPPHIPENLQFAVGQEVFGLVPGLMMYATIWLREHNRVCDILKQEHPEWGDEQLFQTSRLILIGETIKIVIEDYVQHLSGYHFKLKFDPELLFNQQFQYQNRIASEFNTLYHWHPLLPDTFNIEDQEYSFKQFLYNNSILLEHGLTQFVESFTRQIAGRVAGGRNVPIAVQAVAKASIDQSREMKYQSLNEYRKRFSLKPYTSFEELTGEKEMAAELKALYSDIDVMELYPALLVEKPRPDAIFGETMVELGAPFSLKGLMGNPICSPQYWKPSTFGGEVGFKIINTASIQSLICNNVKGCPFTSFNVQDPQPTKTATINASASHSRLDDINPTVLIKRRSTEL
Briefly: Inhibition of COX-2 in PH-PDT-treated mouse RIF1 cells assessed as suppression of PGE2 production at 200 uM after 24 hrs by spectrophotometric analysis.

The test system of data set [3] is RIF-1. Nature of the data set: Inhibition of COX2 expression levels in PH-PDT-treated mouse RIF1 cells at 800 uM after 24 hrs by Western blot analysis. It is filed as functional, cell-based.
The subject of data set [4] is RIF-1. Briefly: Cytotoxicity against mouse RIF1 cells at 100 to 800 uM after 24 hrs. It is filed as cell-based. The settings on record: rif-1, 24 h.
The target in data set [5] is T1, Prostaglandin G/H synthase 2 (Mus musculus). Nature of the data set: Inhibition of COX-2 in PH-PDT-treated mouse RIF1 cells assessed as suppression of PGE2 production at 800 uM after 24 hrs by spectrophotometric analysis.
Data set [6] shares this target. Briefly: Inhibition of COX-2 in PH-PDT-treated mouse RIF1 cells assessed as suppression of PGE2 production at 400 uM after 24 hrs by spectrophotometric analysis.
In data set [7] the test system is RIF-1. Briefly: Inhibition of COX2 expression levels in PH-PDT-treated mouse RIF1 cells at 500 uM after 24 hrs by Western blot analysis. Format: functional, cell-based.
Data set [8] has as its system RIF-1. Briefly: Cytotoxicity against mouse RIF1 cells at 500 to 1000 uM after 24 hrs. The settings on record: rif-1, 24 h. Format: cell-based.
For data set [9], the target named is T1, Prostaglandin G/H synthase 2 (Mus musculus). Briefly: Inhibition of COX-2 in PH-PDT-treated mouse RIF1 cells assessed as suppression of PGE2 production at 500 uM after 24 hrs by spectrophotometric analysis.
The test system of data set [10] is RIF-1. Briefly: Cytotoxicity against mouse RIF1 cells at 50 to 800 uM after 24 hrs. Format: cell-based. The settings on record: rif-1, 24 h.
Data set [11] deals with RIF-1. Nature of the data set: Inhibition of COX2 expression levels in PH-PDT-treated mouse RIF1 cells at 62.5 uM after 24 hrs by Western blot analysis. Format: functional, cell-based.
The subject of data set [12] is RIF-1. Nature of the data set: Inhibition of COX2 expression levels in PH-PDT-treated mouse RIF1 cells at 750 uM after 24 hrs by Western blot analysis. Format: functional, cell-based.
The target in data set [13] is T1, Prostaglandin G/H synthase 2 (Mus musculus). Nature of the data set: Inhibition of COX-2 in PH-PDT-treated mouse RIF1 cells assessed as suppression of PGE2 production at 750 uM after 24 hrs by spectrophotometric analysis.
For data set [14], the system named is RIF-1. Briefly: Cytotoxicity against mouse RIF1 cells at 62.5 to 750 uM after 24 hrs. Particulars: rif-1, 24 h. Format: cell-based.
In data set [15] the test system is RIF-1. Briefly: Inhibition of COX2 expression levels in PH-PDT-treated mouse RIF1 cells at 250 uM after 24 hrs by Western blot analysis. It is filed as functional, cell-based.
The subject of data set [16] is RIF-1. Briefly: Cytotoxicity against mouse RIF1 cells at 250 to 750 uM after 24 hrs. It is filed as cell-based. The settings on record: rif-1, 24 h.
In data set [17] the target is T1, Prostaglandin G/H synthase 2 (Mus musculus). Nature of the data set: Inhibition of COX-2 in PH-PDT-treated mouse RIF1 cells assessed as suppression of PGE2 production at 250 uM after 24 hrs by spectrophotometric analysis.

For the compound `CC(=O)Oc1cc(C)c2c(c1C)[C@@H]1OC(=O)[C@@H](C)[C@@H]1CC2`, the inhibition result (in the data set on RIF-1 [1]; in data set [5]) was “inactive” each time. The inhibition result (in data set [2]; in the data set on RIF-1 [3]; in data set [6]) was “Active” throughout. Moreover, the Activity entry with RIF-1 [4] is “Non-Toxic”.

Take `CC1=C2[C@@H]3OC(=O)[C@@H](C)[C@@H]3CC[C@@]2(C)C=CC1=O`: the inhibition entry (with RIF-1 [7]; in data set [9]) was “Active” each time. For the same compound, the Activity result with RIF-1 [8] is “Non-Toxic”.

For the compound `Cc1cc(OCc2ccc(C(F)(F)F)cc2)c(C)c2c1CC[C@H]1[C@H](C)C(=O)O[C@@H]21`, the inhibition result in the data set on RIF-1 [1] is “Active”. The Activity entry in the data set on RIF-1 [10] is given as “Non-Toxic”.

Turning to `Cc1cc(OCc2ccccc2)c(C)c2c1CC[C@H]1[C@H](C)C(=O)O[C@@H]21`, the inhibition entry (in the data set with RIF-1 [7]; in the data set on RIF-1 [11]; in the data set on RIF-1 [12]; in data set [13]; in [9]) was “Active” in each case. In addition, the Activity result with RIF-1 [14] is “Toxic”.

Regarding `Cc1cc(O)c(C)c2c1CC[C@H]1[C@H](C)C(=O)O[C@@H]21`, the inhibition result (in the data set with RIF-1 [7]; in data set [17]) was “Active” in each case. For the same compound, in the data set with RIF-1 [15], the inhibition entry was “inactive”. Moreover, in the data set with RIF-1 [16], the Activity entry was “Non-Toxic”.
